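Method: 48-hour compound exposure of cells in 96-well plates, five concentrations, linear interpolation of endpoints. Definition used: TGI = concentration required for complete inhibition of growth.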
Legend:
Experiment in all cases: NCI-60 cell line screen, 48 h
UACC-257 melanoma = tested on: UACC-257 melanoma
M19-MEL melanoma = tested on: M19-MEL melanoma
A549 NSCLC = tested on: A549 NSCLC
SK-OV-3 ovarian = tested on: SK-OV-3 ovarian
SW-620 colon = tested on: SW-620 colon
SNB-78 CNS = tested on: SNB-78 CNS
HOP-18 NSCLC = tested on: HOP-18 NSCLC
NCI-H23 lung = tested on: NCI-H23 lung
HOP-62 NSCLC = tested on: HOP-62 NSCLC
DMS 273 small cell lung = tested on: DMS 273 small cell lung
DMS 114 small cell lung = tested on: DMS 114 small cell lung
HT29 colon = tested on: HT29 colon
M14 melanoma = tested on: M14 melanoma
SNB-75 CNS = tested on: SNB-75 CNS
CAKI-1 renal = tested on: CAKI-1 renal
HCT-15 colon = tested on: HCT-15 colon
MOLT-4 leukemia = tested on: MOLT-4 leukemia
KM20L2 colon = tested on: KM20L2 colon
UO-31 renal = tested on: UO-31 renal
SK-MEL-28 melanoma = tested on: SK-MEL-28 melanoma
EKVX NSCLC = tested on: EKVX NSCLC
HCT-116 colon = tested on: HCT-116 colon
UACC-62 melanoma = tested on: UACC-62 melanoma
IGROV1 ovarian = tested on: IGROV1 ovarian
SF-268 CNS = tested on: SF-268 CNS
SK-MEL-5 melanoma = tested on: SK-MEL-5 melanoma
SF-539 CNS = tested on: SF-539 CNS
A498 renal = tested on: A498 renal
RXF-631 renal = tested on: RXF-631 renal
CCRF-CEM leukemia = tested on: CCRF-CEM leukemia
SR leukemia = tested on: SR leukemia
ACHN renal = tested on: ACHN renal
LOX IMVI melanoma = tested on: LOX IMVI melanoma
DLD-1 colon = tested on: DLD-1 colon
OVCAR-8 ovarian = tested on: OVCAR-8 ovarian
SNB-19 CNS = tested on: SNB-19 CNS
XF 498 CNS = tested on: XF 498 CNS
OVCAR-4 ovarian = tested on: OVCAR-4 ovarian
OVCAR-5 ovarian = tested on: OVCAR-5 ovarian
LXFL 529 NSCLC = tested on: LXFL 529 NSCLC
MALME-3M melanoma = tested on: MALME-3M melanoma
786-0 renal = tested on: 786-0 renal
KM12 colon = tested on: KM12 colon
HCC-2998 colon = tested on: HCC-2998 colon
SK-MEL-2 melanoma = tested on: SK-MEL-2 melanoma
NCI-H460 lung = tested on: NCI-H460 lung
K-562 leukemia = tested on: K-562 leukemia
NCI-H522 lung = tested on: NCI-H522 lung
SN12C renal = tested on: SN12C renal
SF-295 CNS = tested on: SF-295 CNS
HL-60(TB) leukemia = tested on: HL-60(TB) leukemia
U251 CNS = tested on: U251 CNS
RXF 393 renal = tested on: RXF 393 renal
RPMI-8226 leukemia = tested on: RPMI-8226 leukemia
TK-10 renal = tested on: TK-10 renal
NCI-H226 lung = tested on: NCI-H226 lung
HOP-92 NSCLC = tested on: HOP-92 NSCLC
COLO 205 colon = tested on: COLO 205 colon
OVCAR-3 ovarian = tested on: OVCAR-3 ovarian

## CN(C)c1ccc(Cc2cc(C(C)(C)C)cc(C(C)(C)C)c2O)cc1
UACC-257 melanoma
  TGI: 34.9 µM
M19-MEL melanoma
  TGI: 49.4 µM
A549 NSCLC
  TGI: 73.6 µM
SK-OV-3 ovarian
  TGI: 74.5 µM
SW-620 colon
  TGI: 30.6 µM
SNB-78 CNS
  TGI: 37.4 µM
HOP-18 NSCLC
  TGI: 80.5 µM
NCI-H23 lung
  TGI: 33.3 µM
HOP-62 NSCLC
  TGI: 37.2 µM
DMS 273 small cell lung
  TGI: 34 µM
DMS 114 small cell lung
  TGI: 28.6 µM
HT29 colon
  TGI: 31.1 µM
M14 melanoma
  TGI: 41.7 µM
SNB-75 CNS
  TGI: 79.6 µM
CAKI-1 renal
  TGI: 39.6 µM
HCT-15 colon
  TGI: 34.3 µM
MOLT-4 leukemia
  TGI: 31.5 µM
KM20L2 colon
  TGI: 40.4 µM
UO-31 renal
  TGI: 32.7 µM
SK-MEL-28 melanoma
  TGI: 42.6 µM
EKVX NSCLC
  TGI: 46.4 µM
HCT-116 colon
  TGI: 26 µM
UACC-62 melanoma
  TGI: 30.2 µM
IGROV1 ovarian
  TGI: 47.8 µM
SF-268 CNS
  TGI: 35.6 µM
SK-MEL-5 melanoma
  TGI: 29.5 µM
SF-539 CNS
  TGI: 43.1 µM
A498 renal
  TGI: 34 µM
RXF-631 renal
  TGI: 36.3 µM
CCRF-CEM leukemia
  TGI: > 100 µM
SR leukemia
  TGI: 33.8 µM
ACHN renal
  TGI: 33.2 µM
LOX IMVI melanoma
  TGI: 22.3 µM
DLD-1 colon
  TGI: > 100 µM
OVCAR-8 ovarian
  TGI: 42 µM
SNB-19 CNS
  TGI: 47.1 µM
XF 498 CNS
  TGI: 36.5 µM
OVCAR-4 ovarian
  TGI: 82.7 µM
OVCAR-5 ovarian
  TGI: 18.5 µM
LXFL 529 NSCLC
  TGI: 39.4 µM
MALME-3M melanoma
  TGI: 53 µM
786-0 renal
  TGI: 33.8 µM
KM12 colon
  TGI: 24.6 µM
HCC-2998 colon
  TGI: 35.5 µM
SK-MEL-2 melanoma
  TGI: 20.1 µM
NCI-H460 lung
  TGI: 37.5 µM
K-562 leukemia
  TGI: 26.2 µM
NCI-H522 lung
  TGI: 37 µM
SN12C renal
  TGI: 30.2 µM
SF-295 CNS
  TGI: 35.6 µM
HL-60(TB) leukemia
  TGI: > 100 µM
U251 CNS
  TGI: 30.1 µM
RXF 393 renal
  TGI: 30.8 µM
RPMI-8226 leukemia
  TGI: 27.8 µM
TK-10 renal
  TGI: 27.1 µM

## CCCCCCCCCC1CC(=O)Oc2cccc(O)c21 (centres undefined)
UACC-257 melanoma
  TGI: > 100 µM
M19-MEL melanoma
  TGI: > 96.7 µM
A549 NSCLC
  TGI: 83.4 µM
SK-OV-3 ovarian
  TGI: > 92.2 µM
SW-620 colon
  TGI: > 69.4 µM
SNB-78 CNS
  TGI: > 100 µM
HOP-18 NSCLC
  TGI: 97.3 µM
NCI-H23 lung
  TGI: 84.2 µM
HOP-62 NSCLC
  TGI: 80.9 µM
DMS 273 small cell lung
  TGI: 19.3 µM
DMS 114 small cell lung
  TGI: 45.7 µM
HT29 colon
  TGI: 53.8 µM
M14 melanoma
  TGI: 49.6 µM
SNB-75 CNS
  TGI: > 100 µM
CAKI-1 renal
  TGI: 76.3 µM
NCI-H226 lung
  TGI: 99.5 µM
HCT-15 colon
  TGI: 57.1 µM
MOLT-4 leukemia
  TGI: > 85.3 µM
KM20L2 colon
  TGI: > 100 µM
UO-31 renal
  TGI: 75.1 µM
HOP-92 NSCLC
  TGI: > 70.3 µM
SK-MEL-28 melanoma
  TGI: > 70.9 µM
COLO 205 colon
  TGI: 31.3 µM
EKVX NSCLC
  TGI: > 84.6 µM
HCT-116 colon
  TGI: > 100 µM
UACC-62 melanoma
  TGI: 98.3 µM
IGROV1 ovarian
  TGI: 55.2 µM
SF-268 CNS
  TGI: > 100 µM
SK-MEL-5 melanoma
  TGI: 35.2 µM
SF-539 CNS
  TGI: 71.7 µM
A498 renal
  TGI: 42 µM
RXF-631 renal
  TGI: 20.2 µM
CCRF-CEM leukemia
  TGI: 77.1 µM
SR leukemia
  TGI: 64.2 µM
ACHN renal
  TGI: > 84.8 µM
LOX IMVI melanoma
  TGI: 35.6 µM
OVCAR-3 ovarian
  TGI: 24.9 µM
DLD-1 colon
  TGI: > 71 µM
OVCAR-8 ovarian
  TGI: > 81.2 µM
SNB-19 CNS
  TGI: > 88.2 µM
XF 498 CNS
  TGI: 49.7 µM
OVCAR-4 ovarian
  TGI: > 78.3 µM
OVCAR-5 ovarian
  TGI: > 85.4 µM
LXFL 529 NSCLC
  TGI: 63.2 µM
MALME-3M melanoma
  TGI: 38.1 µM
786-0 renal
  TGI: 30.6 µM
KM12 colon
  TGI: 39.1 µM
HCC-2998 colon
  TGI: > 20.2 µM
SK-MEL-2 melanoma
  TGI: > 72.7 µM
NCI-H460 lung
  TGI: 30.7 µM
K-562 leukemia
  TGI: 66.3 µM
NCI-H522 lung
  TGI: 45.3 µM
SN12C renal
  TGI: 15.7 µM
SF-295 CNS
  TGI: > 83.3 µM
HL-60(TB) leukemia
  TGI: 62 µM
U251 CNS
  TGI: 25.4 µM
RXF 393 renal
  TGI: 46.6 µM
RPMI-8226 leukemia
  TGI: 83.4 µM
TK-10 renal
  TGI: > 100 µM

From PubChem BioAssay (NCI)
